Laboratory results as given in US20240279207A1, “SUBSTITUTED ACYL SULFONAMIDES FOR TREATING CANCER” (The Broad Institute, Inc., priority 2020, published 2024).

Tests used:
[1] = biological target: T1, Recombinant human His-tagged Kat6a protein (amino acids 194-810) (Homo sapiens, UniProt Q92794); assay: Kat6a activity assay (TR-FRET, acetylation of Histone-H4-derived peptide); format: biochemical; settings: 60 mins at 22° C., 220 nM H4 peptide, 600 nM Acetyl Coenzyme A, read-out: KAT6A - DPF/HAT domain IC50 [mol/l] (arithmetic mean)
T1 construct: Kat6a protein (amino acids 194-810); His
T1 sequence (Q92794 194-810): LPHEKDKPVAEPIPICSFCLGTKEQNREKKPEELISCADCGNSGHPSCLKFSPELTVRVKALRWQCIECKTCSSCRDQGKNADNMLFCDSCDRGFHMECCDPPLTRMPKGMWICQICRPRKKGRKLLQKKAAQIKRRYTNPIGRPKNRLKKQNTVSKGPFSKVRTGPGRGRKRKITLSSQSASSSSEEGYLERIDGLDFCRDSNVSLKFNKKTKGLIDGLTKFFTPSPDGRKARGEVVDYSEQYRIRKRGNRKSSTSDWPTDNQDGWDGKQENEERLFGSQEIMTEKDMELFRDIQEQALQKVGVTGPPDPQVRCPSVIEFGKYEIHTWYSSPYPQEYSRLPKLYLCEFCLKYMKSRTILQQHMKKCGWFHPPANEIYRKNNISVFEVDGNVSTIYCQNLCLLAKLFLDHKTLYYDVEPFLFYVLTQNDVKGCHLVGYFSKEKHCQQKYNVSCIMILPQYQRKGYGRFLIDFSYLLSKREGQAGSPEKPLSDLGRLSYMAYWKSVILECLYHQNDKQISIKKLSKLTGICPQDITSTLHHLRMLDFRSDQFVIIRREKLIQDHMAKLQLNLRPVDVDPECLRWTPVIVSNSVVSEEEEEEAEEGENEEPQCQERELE

[2] = tested on: ESR1 transcription in MVLN cells; assay: MVLN reporter assay: repression of ESR1 transcription (luciferase signal); format: cell-based; settings: Homo sapiens, MVLN, 24 h, luciferase signal after 24 h, read-out: MVLN reporter assay, IC50 [M] (arithmetic mean)
Method in brief: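 MVLN cells, expressing ER and stably carrying a vitellogenin A2 ERE-luciferase reporter, treated with compound in duplicate; luciferase read after 24 h with Steadylite plus. Cell density checked in parallel by Alamar Blue fluorescence (530/590 nm, 2 h) before the luciferase read.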

SMILES	IC50 [1]	IC50 [2]
CCOc1ccccc1S(=O)(=O)NC(=O)c1cc2ccc(N3CC4(CCC4)C3)cc2o1 [Example 123, 6-(2-Azaspiro[3.3]heptan-2-yl)-N-(2-ethoxybenzene-1-sulfonyl)-1-benzofuran-2-carboxamide]	> 20 µM	> 2e-05 M
CN(C)C(=O)c1cccnc1S(=O)(=O)NC(=O)c1cc2c(F)cc(N3CCC3)cc2o1 [Example 95, 2-{[6-(Azetidin-1-yl)-4-fluoro-1-benzofuran-2-carbonyl]sulfamoyl}-N,N-dimethylpyridine-3-carboxamide]	1.52 µM	> 2e-05 M
O=C(NS(=O)(=O)c1cnc2ccccn12)c1cc2c(F)cc(N3CCC3)cc2o1 [Example 186, 6-(Azetidin-1-yl)-4-fluoro-N-(imidazo[1,2-a]pyridine-3-sulfonyl)-1-benzofuran-2-carboxamide]	1.63 µM	1.7e-05 M
O=C(NS(=O)(=O)c1cnc2c(Cl)cc(Cl)cn12)c1cc2c(F)cc(N3CCC3)cc2o1 [Example 168, 6-(Azetidin-1-yl)-N-(6,8-dichloroimidazo[1,2-a]pyridine-3-sulfonyl)-4-fluoro-1-benzofuran-2-carboxamide]	0.671 µM	> 2e-05 M
CSc1nc2ccccn2c1S(=O)(=O)NC(=O)c1cc2c(F)cc(N3CCC3)cc2o1 [Example 149, 6-(Azetidin-1-yl)-4-fluoro-N-[2-(methylsulfanyl)imidazo[1,2-a]pyridine-3-sulfonyl]-1-benzofuran-2-carboxamide]	0.261 µM	3.66e-06 M
CCOc1cccc(C)c1S(=O)(=O)NC(=O)c1cc2c(F)cc(N3CCC3)cc2o1 [Example 25, 6-(Azetidin-1-yl)-N-(2-ethoxy-6-methylbenzene-1-sulfonyl)-4-fluoro-1-benzofuran-2-carboxamide]	0.148 µM	3.26e-07 M
Cc1cncc2cccc(S(=O)(=O)NC(=O)c3cc4c(F)cc(N5CCC5)cc4o3)c12 [Example 193, 6-(Azetidin-1-yl)-4-fluoro-N-(4-methylisoquinoline-5-sulfonyl)-1-benzofuran-2-carboxamide]	4.82 µM	> 2e-05 M
COCCOc1ccc(Cl)c(S(=O)(=O)NC(=O)c2cc3c(F)cc(N4CCC4)cc3o2)c1 [Example 59, 6-(Azetidin-1-yl)-N-[2-chloro-5-(2-methoxyethoxy)benzene-1-sulfonyl]-4-fluoro-1-benzofuran-2-carboxamide]	0.208 µM	4.29e-06 M
CCS(=O)(=O)c1ccccc1S(=O)(=O)NC(=O)c1cc2c(F)cc(N3CCC3)cc2o1 [Example 77, 6-(Azetidin-1-yl)-N-[2-(ethanesulfonyl)benzene-1-sulfonyl]-4-fluoro-1-benzofuran-2-carboxamide]	0.207 µM	3.45e-06 M
CCCOc1cccc(OC(C)(C)C)c1S(=O)(=O)NC(=O)c1cc2c(F)cc(N3CCC3)cc2o1 [Example 83, 6-(Azetidin-1-yl)-N-(2-tert-butoxy-6-propoxybenzene-1-sulfonyl)-4-fluoro-1-benzofuran-2-carboxamide]	0.0267 µM	2.85e-07 M
Cc1ccc(S(=O)(=O)NC(=O)c2cc3c(F)cc(N4CCC4)cc3o2)c2ccncc12 [Example 191, 6-(Azetidin-1-yl)-4-fluoro-N-(8-methylisoquinoline-5-sulfonyl)-1-benzofuran-2-carboxamide]	0.301 µM	4.99e-06 M

Continued by falling IC50 [1], values first:

IC50 [1]	IC50 [2]	SMILES
0.139 µM	1.29e-06 M	CC(O)c1ccc(Cl)c(S(=O)(=O)NC(=O)c2cc3c(F)cc(N4CCC4)cc3o2)c1 (racemic) [Example 100, 6-(Azetidin-1-yl)-N-[2-chloro-5-(1-hydroxyethyl)benzene-1-sulfonyl]-4-fluoro-1-benzofuran-2-carboxamide (rac)]
0.136 µM	3.56e-07 M	CC(C)Oc1cccc(C(F)(F)F)c1S(=O)(=O)NC(=O)c1cc2c(F)cc(N3CCC3)cc2o1 [Example 28, 6-(Azetidin-1-yl)-4-fluoro-N-{2-[(propan-2-yl)oxy]-6-(trifluoromethyl)benzene-1-sulfonyl}-1-benzofuran-2-carboxamide]
0.122 µM	2.11e-06 M	O=C(NS(=O)(=O)c1cccc2nccnc12)c1cc2c(F)cc(N3CCC3)cc2o1 [Example 56, 6-(Azetidin-1-yl)-4-fluoro-N-(quinoxaline-5-sulfonyl)-1-benzofuran-2-carboxamide]
0.122 µM	1.15e-06 M	CCNc1ccccc1S(=O)(=O)NC(=O)c1cc2c(F)cc(N3CCC3)cc2o1 [Example 46, 6-(azetidin-1-yl)-N-[2-(ethylamino)benzene-1-sulfonyl]-4-fluoro-1-benzofuran-2-carboxamide]
0.0855 µM	7.07e-07 M	CC(C)c1cc(Br)ccc1S(=O)(=O)NC(=O)c1cc2c(F)cc(N3CCC3)cc2o1 [Example 38, 6-(Azetidin-1-yl)-N-[4-bromo-2-(propan-2-yl)benzene-1-sulfonyl]-4-fluoro-1-benzofuran-2-carboxamide]
0.0851 µM	8e-06 M	Cc1cccc(O)c1S(=O)(=O)NC(=O)c1cc2c(F)cc(N3CCC3)cc2o1 [Example 64, 6-(Azetidin-1-yl)-4-fluoro-N-(2-hydroxy-6-methylbenzene-1-sulfonyl)-1-benzofuran-2-carboxamide]
0.0496 µM	3.54e-07 M	COc1ccc(Cl)c(C)c1S(=O)(=O)NC(=O)c1cc2c(F)cc(N3CCC3)cc2o1 [Example 27, 6-(Azetidin-1-yl)-N-(3-chloro-6-methoxy-2-methylbenzene-1-sulfonyl)-4-fluoro-1-benzofuran-2-carboxamide]
0.0467 µM	3e-07 M	O=C(NS(=O)(=O)c1c(F)cccc1C1CCC1)c1cc2c(F)cc(N3CCC3)cc2o1 [Example 24, 6-(Azetidin-1-yl)-N-(2-cyclobutyl-6-fluorobenzene-1-sulfonyl)-4-fluoro-1-benzofuran-2-carboxamide]
0.0427 µM	5.73e-07 M	CCc1cccc(OC(C)C)c1S(=O)(=O)NC(=O)c1cc2c(F)cc(N3CCC3)cc2o1 [Example 84, 6-(Azetidin-1-yl)-N-{2-ethyl-6-[(propan-2-yl)oxy]benzene-1-sulfonyl}-4-fluoro-1-benzofuran-2-carboxamide]
0.0286 µM	2.72e-07 M	CCOc1cccc(C(C)C)c1S(=O)(=O)NC(=O)c1cc2c(F)cc(N3CCC3)cc2o1 [Example 23, 6-(Azetidin-1-yl)-N-[2-ethoxy-6-(propan-2-yl)benzene-1-sulfonyl]-4-fluoro-1-benzofuran-2-carboxamide]
0.0265 µM	1.65e-07 M	COc1cc(Br)ccc1S(=O)(=O)NC(=O)c1cc2c(F)cc(N3CCC3)cc2o1 [Example 174, 6-(Azetidin-1-yl)-N-(4-bromo-2-methoxybenzene-1-sulfonyl)-4-fluoro-1-benzofuran-2-carboxamide]
0.00859 µM	1.3e-07 M	Cc1cc(C(C)(C)C)cc(S(=O)(=O)NC(=O)c2cc3c(F)cc(N4CCC4)cc3o2)c1C [Example 189, 6-(Azetidin-1-yl)-N-(5-tert-butyl-2,3-dimethylbenzene-1-sulfonyl)-4-fluoro-1-benzofuran-2-carboxamide]
0.00419 µM	7.76e-08 M	COc1ccc(-c2c(C)noc2C)cc1S(=O)(=O)NC(=O)c1cc2c(F)cc(N3CCC3)cc2o1 [Example 194, 6-(Azetidin-1-yl)-N-[5-(3,5-dimethyl-1,2-oxazol-4-yl)-2-methoxybenzene-1-sulfonyl]-4-fluoro-1-benzofuran-2-carboxamide]
